Data taken from patent publication US20110028566A1, “COMPOSITIONS AND PRODUCTS CONTAINING CYCLOALIPHATIC DIOL ANTIMICROBIAL AGENTS AND METHODS OF USING THE COMPOSITIONS AND PRODUCTS” (EASTMAN CHEMICAL COMPANY, priority 2009, published 2011).
“And” between values parts separate entries of the source, which are not always exact repeats. Identical values can stand only once.

What was measured:
[1] = tested on: Escherichia coli ATCC 25922; assay: MIC determination and synergy testing (Kull synergy index), microplate; format: cell-based; settings: for QB/b: concentration of CG (MIC alone, or in the combination at an inhibitory concentration) / SI (synergy index) / QA, MIC of CHDM alone / QA/a: concentration of CHDM (MIC alone, or in the combination at an inhibitory concentration) / QA/a: concentration of CHDM alone (QA, MIC): E. coli; for QB/b: concentration of CG (MIC alone, or in the combination at an inhibitory concentration) / SI (synergy index) / QA/a: concentration of CHDM (MIC alone, or in the combination at an inhibitory concentration): plate 107A, CG and CHDM
Description: The test cultures are listed in Table 7 along with the incubation temperatures used for growth and minimum inhibitory concentration (MIC) testing. […] C. albicans was cultured in Sabouraud dextrose broth (SDB) for approximately 44-52 hours for preparation of inoculum. A. niger was cultured on Sabouraud dextrose agar (SDA) for 3-4 days until there was confluent growth and visible spore formation. Spores were harvested from the SDA plates by flooding the surface of the plate with 5-10 mL of phosphate-buffered saline (PBS) and gently spreading the liquid across the surface of the plate with a sterile T-shaped plastic spreader (Copan Diagnostics) until there was a well-mixed suspension of spores. The resulting spore suspension was collected using a serological pipette and stored at 2-8° C. until use.
Inoculum concentration was determined by dilution plating of the cultures or spore suspension. A serial dilution in PBS was made to 10^−8 for the bacterial cultures or 10^−5 for the fungal cultures. Fifty or 100 μL of the final dilution was spread on two Trypticase-soy agar (TSA) plates for bacteria or two SDA plates for fungi. After 24 to 48 hours plates were counted and the concentrations used in each experiment were calculated.
The antimicrobial agents tested for synergy along with the respective diluents and working stock solution concentrations are shown below. For determination of MIC ranges, individual antimicrobial agent stock solutions were added to sterile medium to yield the highest level test concentrations, and then serially diluted in the medium to prepare the range of test concentrations. For synergy testing individual test concentrations were prepared in sterile medium, and then blended to form the desired combinations.
MICs were determined using a high-throughput microplate method. Individual antimicrobial agents were added to TSB (pH 7.3) for bacterial testing or SDB (pH 5.6) for fungal testing at the highest concentration to be tested. A serial dilution series was prepared at a dilution ratio of 1:1.3333 such that a one log range was covered in nine dilutions. Two-hundred microliters of the diluted antimicrobial agents were dispensed into four wells each of a sterile, 96-well, flat-bottom microplate (Nalge Nunc International). Four additional wells of the highest concentration were dispensed to serve as uninoculated high-level controls. Eight additional wells containing only broth medium were also prepared, four to serve as negative controls and four as positive controls. Three wells of each antimicrobial agent dilution were inoculated with one of the test strains in Table 7. The final well of each antimicrobial agent dilution was left uninoculated to serve as a control (and means of compensating) for any absorbance/turbidity due to the test compounds.
Microplates were inoculated using the cultures or spore suspensions prepared as described above. The S. aureus cultures were used undiluted, while the E. coli and P. aeruginosa cultures were used either undiluted or after a 1:2 dilution in sterile TSB. The C. albicans cultures were used either undiluted or following a 2-fold concentration by centrifugation. One of two means of inoculation was used to deliver a final concentration of approximately 10^5 colony-forming units (CFU)/mL of C. albicans, 10^5 spores/mL of A. niger, or 10^6 CFU/mL of bacteria. The primary method used a stainless steel pin replicator (Nalge Nunc International) mounted on a hand-operated bench-top press (Schmidt Technology Corporation) fitted with a custom-built microplate holder to dispense one microliter of each inoculum from a “master” plate containing 50-100 μL of culture into the wells of the test plate. The pin replicator was sterilized before and between inoculations by immersing in ethanol and flaming. The alternative method of inoculation was by directly pipetting 20 μL of a 1:20 dilution of each culture or spore suspension into the appropriate wells of the test plates.

[2] = tested on: challenge organisms (fungi, Gram negative and Gram positive bacteria); assay: Microbial challenge testing (Example 1), statements over all challenge organisms; format: cell-based; settings: Table 6 experiments; glycol 0.5 to 2.5 wt %, BIT 0.05 and 0.2 wt %; from grade codes
Description: The microorganisms used in challenge tests are given in Table 3, designated as either ATCC (American Type Culture Collection) or wild type. These wild type organisms were problematic organisms previously isolated from chemical products. In the description for each organism, the bacteria are indicated as either GN (Gram negative) or GP (Gram positive). […] Sample substrates were prepared in triplicate, except those substrates containing PE or CG which were prepared in duplicate. […] After mixing, all challenged substrates were incubated at 35° C.±2° C. for 14 days and then at ambient room temperature. […] The turbidity of the sample was determined and, if needed, the sample was diluted with phosphate buffer (pH 7.2) to produce readable plate counts (see “Plate Counts” below). […] For diluted samples, plates producing 22 to 220 colonies per plate were counted and the count was multiplied by the dilution factor. […] Possible synergies were determined by treating the grade code as an estimate of the log of the microbial count (log of cfu/mL). […] Synergies were determined in the same way as described above for Table 5. […] As mentioned previously, synergies (as indicated in Tables 5 and 6) were determined by treating the grade codes as the logarithm (log) of the organism counts (cfu/ml), then adding log reductions for the individual components and comparing to the log reduction for the mixture. […]

| SMILES | QB/b: concentration of CG (MIC alone, or in the combination at an inhibitory concentration) ([1]; day 1) [weight percent] | SI (synergy index) ([1]; day 1) | QB/b: concentration of CG (MIC alone, or in the combination at an inhibitory concentration) ([1]; day 2) [weight percent] | SI (synergy index) ([1]; day 2) | QA/a ([1]; CHDM alone (QA) or in combination with BA:DHA (a), plate 111A, day 1) | QA/a ([1]; CHDM alone (QA) or in combination with IPBC (a), plate 119A, day 1) | QA/a ([1]; CHDM alone (QA) or in combination with IPBC (a), plate 119A, day 2) | QA/a ([1]; CHDM: MIC alone (QA) or conc. in combination with CP (a), plate 110A, day 1) | QA/a ([1]; CHDM: MIC alone (QA) or conc. in combination with CP (a), plate 110A, day 2) | QA, MIC of CHDM alone ([1]; day 1 of incubation, plate 108A (MP series)) [weight percent] | QA, MIC of CHDM alone ([1]; day 1 of incubation, plates 105A, 213A, 223A (PE series)) | QA, MIC of CHDM alone ([1]; day 2 of incubation, plate 108A (MP series)) [weight percent] | QA, MIC of CHDM alone ([1]; day 2 of incubation, plates 105A, 213A, 223A (PE series)) | QA/a: concentration of CHDM (MIC alone, or in the combination at an inhibitory concentration) ([1]; day 1) [weight percent] | QA/a: concentration of CHDM (MIC alone, or in the combination at an inhibitory concentration) ([1]; day 2) [weight percent] | QA/a: concentration of CHDM alone (QA, MIC) ([1]; Table 44, Day 1) [weight percent] | QA/a: concentration of CHDM alone (QA, MIC) ([1]; Table 44, Day 2) [weight percent] | QA/a: concentration of CHDM alone (QA, MIC) ([1]; Table 47, Day 1) [weight percent] | QA/a: concentration of CHDM alone (QA, MIC) ([1]; Table 47, Day 2) [weight percent] | Synergism of cycloaliphatic diol with BIT (in words) [2] |
| --- | --- | --- | --- | --- | --- | --- | --- | --- | --- | --- | --- | --- | --- | --- | --- | --- | --- | --- | --- | --- |
| CCCCCCC(O)CO (centres unmarked) [CG, 1,2-octanediol] | 0.16 | 1.00 | 0.16 | 1.00 |  |  |  |  |  |  |  |  |  |  |  |  |  |  |  |  |
| OCC1CCC(CO)CC1 (centres unmarked) [1,4-CHDM, 1,4-cyclohexanedimethanol] |  | 1.00 |  | 1.00 | 1.73 | 1.73 | 1.73 | 1.73 | 1.73 | 1.73 | 1.30 weight percent and 1.47 weight percent | 1.73 | 1.30 weight percent and 1.47 weight percent | 1.73 | 1.73 | 1.73 | 1.73 | 1.73 | 1.73 | significant enhancement to the antimicrobial activity of BIT |
| CC1(C)C(O)C(C)(C)C1O (centres unmarked) [TMCD, 2,2,4,4-tetramethyl-1,3-cyclobutanediol] |  |  |  |  |  |  |  |  |  |  |  |  |  |  |  |  |  |  |  | significant enhancement to the antimicrobial activity of BIT |
